Data published in ChEMBL document CHEMBL1148042, “Novel bioactive diterpenoids from Aframomum aulacocarpos” (1994).
Converted amounts (≈) assume the structure as drawn.

How the values were obtained:
Assay type in all cases: functional
Rhizomucor miehei = test: Antifungal activity against Mucor miehei by plate diffusion assay
L1210 = test: Cytotoxicity against mouse L1210 cells; settings: read-out: ED50 (the source's name)
Bacillus subtilis = test: Antibacterial activity against Bacillus subtilis ATCC 6633 by serial dilution assay

MIC (Rhizomucor miehei) | MIC (Bacillus subtilis) | Compound | EC50 (L1210)
50 µg/mL (≈ 131 µM) | 25 µg/mL (≈ 65.7 µM) | COC(=O)/C(=C/C[C@H]1[C@]2(CO2)C[C@@H](O)[C@H]2C(C)(C)[C@@H](O)CC[C@@]21C)C1CO1 (stereo partly drawn) [AULACOCARPIN B] | 25 µg/mL (≈ 65.7 µM)
50 µg/mL (≈ 137 µM) | 25 µg/mL (≈ 68.6 µM) | COC(=O)/C(=C/C[C@H]1[C@@]2(CC[C@H]3C(C)(C)[C@@H](O)CC[C@@]31C)CO2)C1CO1 (stereo partly drawn) [AULACOCARPINE A] | 
50 µg/mL (≈ 150 µM) | 25 µg/mL (≈ 75.2 µM) | CC1(C)[C@@H](O)CC[C@]2(C)C3=C(CC[C@@H]12)CO[C@@H](C1=CCOC1=O)C3 [AULACOCARPINOLIDE] | 12.5 µg/mL (≈ 37.6 µM)
